Data set [1] can be described thus: Stability in C57BL/6 K2EDTA plasma at 22° C. over 1 hour by LC. The format is in vitro ADME, mouse. To be noted: for Remaining %: mouse plasma, 2,000 ng/mL, 22°C. As for the experimental part: Tucaresol, Compound B02, Compound C01, Compound C02-1, and Compound C02 were dosed once, by IV bolus (3 mg/kg in 20% hydroxyprophyl-13-cyclodextrin with 1 eq NaOH) or PO (10 mg/kg in 1% carboxymethylcellulose/0.1% tween-80 in water), to non-fasted male C57BL/6 mice. Animals were bled from the dorsal metatarsal vein (from the heart for 24 hour time point) for K2-EDTA plasma 0.083 (for IV only), 0.25, 0.5, 1, 2, 4, 8, and 24 hours after dosing. The plasma concentration of the dosed tucaresol or compound were measured by LC/MS/MS (I-CMS-8060 instrument for MS). PK parameters were then calculated with WinNonlin 6.1. For Compounds C01, CO2 and CO2-1, stability in C57BL/6 K2EDTA plasma was also evaluated at 22° C. over 1 hour by utilizing LC.
Compounds C01 and C02-1 are unstable at 22° C.

The nature of data set [2]: Body weight in MC38 model (Example 10). The format is in vivo. The note with it: for Mean Body Weight: in g (unit assumed). As for the experimental part:
After tumor cell inoculation, the animals were checked daily for morbidity and mortality. During routine monitoring, the animals were checked for any effects of tumor growth and treatments on behavior such as mobility, food and water consumption, body weight gain/loss (Body weights were measured three times a week after randomization), eye/hair matting and any other abnormalities. Mortality and observed clinical signs were recorded for individual animals in detail.
Tumor volumes were measured three times a week after randomization in two dimensions using a caliper, and the volume was expressed in mm^3 using the formula: V=(L×W×W)/2, where V is tumor volume, L is tumor length (the longest tumor dimension) and W is tumor width (the longest tumor dimension perpendicular to L). Dosing as well as tumor and body weight measurements were conducted in a Laminar Flow Cabinet. The body weights and tumor volumes were measured by using StudyDirector™ software (version 3.1.399.19).
After one measurement of body weight loss (BWL)>20% or BWL>15% for consecutive 72 hours, the individual mouse was sacrificed. BWL was calculated based on the BW of mouse on the first day of treatment. After one measurement of BWL>15%, dosing holidays were given to the individual mouse with BWL>15% which was housed in a separate cage alone with daily monitoring for 72 hours, while other mice in the same group would receive dosing as scheduled., treatment was resumed when the BWL has recovered to BWL<10%. Supplemental gel was supplied to all the animals in the study on day 5 to day 15 upon sponsor's request.
The body weight of all animals was monitored throughout the study and animals were euthanized if they lost over 15% of their body weight relative to the weight at the first day of treatment for 3 consecutive days, or lose over 20% of their body weight relative to the weight at the first day of treatment.

On to `O=Cc1c(OCc2ccc(C(=O)O)cc2)cccc1OC1O[C@H](CO)[C@@H](O)[C@H](O)[C@H]1O` (some centres unmarked) [Compound C02], for which the “mouse plasma stability (in words)” value in data set [1] (22° C.) is “initial instability”. Further, the Remaining % came to 100% in data set [1] (0 min); 62.3% in data set [1] (5 min); 79.6% in data set [1] (15 min); 68.7% in data set [1] (30 min); 61.7% in data set [1] (60 min). Further, the “level of starting at which the compound leveled off” value in data set [1] (mouse plasma, 22° C., through 1 hour) is 60-70%. For the same molecule, the “weight loss (in words)” value in data set [2] (20 mg/kg, PO, QDx5 (day 1-5), as a monotherapy or in combination with anti-PD1) was “not associated with weight loss”. Moreover, the “Mean Body Weight” value is listed as 18.9 ± 0.2 in data set [2] (Day 1, Group 02: C02 20 mg/kg p.o. QD × 5 (day 1~5) + Rat IgG2a 10 mg/kg i.p. BIW); 19.2 ± 0.2 in data set [2] (Day 1, Group 04: C02 20 mg/kg p.o. QD × 5 (day 1~5) in combination with PD-1 (RMP 1-14) 10 mg/kg i.p. BIW × 6 doses); 19.2 ± 0.2 in data set [2] (Day 4, Group 02: C02 20 mg/kg p.o. QD × 5 (day 1~5) + Rat IgG2a 10 mg/kg i.p. BIW); 19.3 ± 0.2 in data set [2] (Day 4, Group 04: C02 20 mg/kg p.o. QD × 5 (day 1~5) in combination with PD-1 (RMP 1-14) 10 mg/kg i.p. BIW × 6 doses); 19.6 ± 0.2 in data set [2] (Day 8, Group 02: C02 20 mg/kg p.o. QD × 5 (day 1~5) + Rat IgG2a 10 mg/kg i.p. BIW); 19.9 ± 0.1 in data set [2] (Day 8, Group 04: C02 20 mg/kg p.o. QD × 5 (day 1~5) in combination with PD-1 (RMP 1-14) 10 mg/kg i.p. BIW × 6 doses). The “Mean Body Weight” value came to 20 ± 0.3 in data set [2] (Day 10, Group 02: C02 20 mg/kg p.o. QD × 5 (day 1~5) + Rat IgG2a 10 mg/kg i.p. BIW); 20.3 ± 0.2 in data set [2] (Day 10, Group 04: C02 20 mg/kg p.o. QD × 5 (day 1~5) in combination with PD-1 (RMP 1-14) 10 mg/kg i.p. BIW × 6 doses); 20.6 ± 0.4 in data set [2] (Day 12, Group 02: C02 20 mg/kg p.o. QD × 5 (day 1~5) + Rat IgG2a 10 mg/kg i.p. BIW); 21 ± 0.2 in data set [2] (Day 12, Group 04: C02 20 mg/kg p.o. QD × 5 (day 1~5) in combination with PD-1 (RMP 1-14) 10 mg/kg i.p. BIW × 6 doses); 22.3 ± 0.5 in data set [2] (Day 15, Group 02: C02 20 mg/kg p.o. QD × 5 (day 1~5) + Rat IgG2a 10 mg/kg i.p. BIW); 21.9 ± 0.4 in data set [2] (Day 15, Group 04: C02 20 mg/kg p.o. QD × 5 (day 1~5) in combination with PD-1 (RMP 1-14) 10 mg/kg i.p. BIW × 6 doses).

The values above are taken from US20220387365A1, “TUCARESOL DERIVATIVES AND USES THEREOF” (BeyondSpring Pharmaceuticals, Inc., priority 2019, published 2022).
